According to patent US10570156B2, “Substituted imidazo[1,2-a]pyridines as PDE-10 inhibitors” (SUNOVION PHARMACEUTICALS INC., priority 2011, dated 2020):

Target: recombinant human PDE-10 enzyme (Homo sapiens (Human), UniProt Q9Y233)
Assay: human PDE-10 inhibition assay (IMAP PDE Fluorescence Polarization enzyme assay)
Format: biochemical
Details: Fluorescein-labeled cAMP/cGMP substrate, 40-minute incubation at 37° C.
Experimental: In one embodiment, the compounds provided herein were assayed for their ability to inhibit human PDE-10A. In one embodiment, the activities of the compounds were determined using the Molecular Devices IMAP PDE Fluorescence Polarization assay using recombinant human PDE-10 enzyme expressed in a baculoviral system. Briefly, 10 μL of a compound (0.2 nM-20 μM) was added to either a 96-well half area black plate or a 384-well black plate along with 10 μL of Fluorescein-labeled cAMP/cGMP substrate as per manufacturer's instructions and 10 μL of PDE enzyme (activity 0.1 U). Following a 40-minute incubation at 37° C., 60 μL of IMAP binding reagent was added. The plate was then read on a Perkin Elmer Victor (480-535 nm). The data was analyzed using Prism Software (GraphPad Inc, San Diego, Calif.).

Sequence of recombinant human PDE-10 enzyme (Q9Y233 whole entry): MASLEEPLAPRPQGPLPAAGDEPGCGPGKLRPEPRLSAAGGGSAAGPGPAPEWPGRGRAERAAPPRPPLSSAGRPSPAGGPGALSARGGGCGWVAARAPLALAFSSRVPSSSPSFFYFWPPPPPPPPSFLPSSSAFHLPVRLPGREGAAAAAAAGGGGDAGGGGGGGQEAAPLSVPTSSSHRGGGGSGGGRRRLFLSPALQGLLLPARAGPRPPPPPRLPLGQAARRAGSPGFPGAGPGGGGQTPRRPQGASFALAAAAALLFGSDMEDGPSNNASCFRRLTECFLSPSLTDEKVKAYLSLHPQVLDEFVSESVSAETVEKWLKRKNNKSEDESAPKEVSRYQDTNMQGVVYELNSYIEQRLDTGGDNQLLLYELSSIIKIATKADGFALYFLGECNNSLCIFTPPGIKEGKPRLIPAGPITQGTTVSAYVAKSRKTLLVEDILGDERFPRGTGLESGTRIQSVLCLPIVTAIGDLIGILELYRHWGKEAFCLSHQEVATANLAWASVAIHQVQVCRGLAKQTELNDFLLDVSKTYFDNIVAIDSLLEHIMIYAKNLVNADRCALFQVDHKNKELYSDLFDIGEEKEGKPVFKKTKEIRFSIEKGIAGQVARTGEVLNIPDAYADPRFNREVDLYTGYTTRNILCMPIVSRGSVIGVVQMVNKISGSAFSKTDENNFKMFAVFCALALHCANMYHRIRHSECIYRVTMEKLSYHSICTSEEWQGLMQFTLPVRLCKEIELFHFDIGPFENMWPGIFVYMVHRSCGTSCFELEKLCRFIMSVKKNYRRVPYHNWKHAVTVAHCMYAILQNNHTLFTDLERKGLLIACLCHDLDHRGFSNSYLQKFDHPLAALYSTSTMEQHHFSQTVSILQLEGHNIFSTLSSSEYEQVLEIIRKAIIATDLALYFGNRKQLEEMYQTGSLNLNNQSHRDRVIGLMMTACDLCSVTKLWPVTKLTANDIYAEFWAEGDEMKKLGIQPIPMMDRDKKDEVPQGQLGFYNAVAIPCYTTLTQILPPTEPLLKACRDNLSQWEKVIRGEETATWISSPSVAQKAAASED

- IC50: > 0.5 µM
Structure (SMILES): Cc1ncc(C)n2nc(CCc3nc4c(C)ncc(C)n4n3)nc12 [Compound 2]
